Experimental data taken from patent US7160733B2, “Ligand specific to β2-glycoprotein I and use thereof” (priority 2001, dated 2007).

How the values were obtained:
[1] = system: anti-β2-GPI antibodies; experiment: ELISA of the anti-β2-GPI antibodies by use of a ligand-coated plate (results in words); type: binding; settings: result in words; for binding of the anti-β2-GPI autoantibodies (WB-CAL-1 and EY2C9) to solid-phase ligand: ligand-coated plate
Experimental: (§1) Binding to extracted lipids: A microtiter plate (Immulon 1B, Dynex Technologies Inc.) was coated with lipids extracted from LDLs (50 μg/mL, 50 μL/well) by ethanol evaporation. The wells were blocked with PBS containing 1% BSA for one hour and the wells were incubated with 30 μg/mL of β2-GPI for one hour. Then, β2-GPI binding was detected using Cof-22 and HRP-labeled anti-mouse IgG antibodies. Alternatively, an anti-β2-GPI autoantibody (Cof-22, WB-CAL-1, or EY2C9) was diluted with a 0.3% BSA-containing PBS, and the diluted antibody was added to the coated plate (1.0 μg/mL, 100 μL/well) and incubated with β2-GPI (15 μg/mL) for one hour. The binding of the antibody was detected by an HRP-labeled anti-mouse IgG /or an anti-human IgM. The color was developed with H2O2 and o-phenylenediamine, and OD was measured at 490 nm. Between these steps, extensive washing were done using PBS containing 0.05% Tween 20.
(§2) Synthesized oxLig-1 (50 μg/mL, 50 μL/well) was adsorbed by evaporation on a polystyrene plate (Immulon 1B; Dynex Technologies Inc.), and the plate was then blocked with 1% BSA. Serum samples (diluted 1:100 with PBS containing 0.3% BSA) were incubated in the wells with β2-GPI (15 μg/mL) or other proteins for one hour at room temperature. Antibody binding was detected with HRP-labeled anti-human IgG. Further steps were performed through a method as described in “anti-β2-GPI ELISA.”

[2] = target: T1, β2-GPI (Homo sapiens, UniProt P02749); experiment: ELISA on solid-phase lipid (ligand)-coated plate: β2-GPI binding detected with Cof-22; settings: for β2-GPI binding to lipid: result in words (discussion); for β2-GPI binding (Cof-22 binding), No treatment: absorbance at 490 nm, mean ± SD (n = 3), solid-phase ligand not methylated
T1 construct: β2-GPI was purified from normal human plasma as described in [35] with slight modification; from tissue; host or cells: pooled normal human plasma from healthy subjects
T1 sequence (P02749 20-345): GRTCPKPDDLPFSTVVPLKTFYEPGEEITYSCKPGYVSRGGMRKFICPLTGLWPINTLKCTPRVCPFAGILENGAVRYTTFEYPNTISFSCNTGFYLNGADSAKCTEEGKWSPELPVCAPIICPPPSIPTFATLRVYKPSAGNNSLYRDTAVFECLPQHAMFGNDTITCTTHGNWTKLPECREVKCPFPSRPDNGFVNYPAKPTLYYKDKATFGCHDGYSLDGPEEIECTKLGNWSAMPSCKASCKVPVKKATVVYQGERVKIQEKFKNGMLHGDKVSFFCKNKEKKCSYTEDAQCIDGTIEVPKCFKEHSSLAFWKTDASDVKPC
Experimental: as §1, §2
(§3) CL (50 μg/mL, 50 μL/well) was adsorbed on a polystyrene plate (Immulon 1B), and further steps were performed through a method as described in “ELISA for antibodies against a protein-oxLig-1 complex.”

[3] = system: J774A.1 cells; experiment: Liposome binding to macrophages (3H-labeled liposomes, 4° C.); type: cell-based, murine; settings: result in words
Experimental: FIG. 10. Effect of phosphatidylserine (PS) or oxLig-1 content on the binding of liposomes to macrophages. A monolayer of J774.A1 cells was incubated for 2 hours at 4° C. with Celgrosser-P medium containing ^3H-labeled liposomes (50 nmol lipid/well). Open circle represents PS-liposomes; closed circle represents PS-Chol-liposomes; open square represents oxLig-1-liposomes; and closed square represents oxLig-1-Chol-liposomes. Data are indicated as the mean± SD of triplicate samples.
FIG. 11. β2-GPI and anti-β2-GPI monoclonal antibody-dependent binding of ligand-containing liposomes to macrophage. A monolayer of J774.A1 cells was incubated for 2 hours at 4° C. with Celgrosser-P medium containing ^3H-labeled liposomes (50 nmol lipid/well) and WB-CAL-1, in the presence or absence of β2-GPI (200 μg/ml). • A: Binding of PS-liposomes (PS: 50 mol %,) to J774.A1. cells in the presence (closed square) or absence (open square) of β2-GPI (200 μg/ml) • B: Binding of oxLig-1-liposomes (oxLig-1: 40 mol %) to J774.A1 cells in the presence (black bar) or absence (white bar) of β2-GPI (200 μg/ml). • C: A monolayer of J774.A1 cells was incubated for 2 hours at 4° C. with Celgrosser-P medium containing ^3H-labeled synthesized oxLig-1-liposomes (50 nmol lipid/well) and WB-CAL-1, in the presence or absence of β2-GPI (200 μg/ml). Binding of synthesized oxLig-1-liposomes in the absence of β2-GPI and WB-CAL-1 (open circle), binding of synthesized oxLig-1-liposomes in the presence of β2-GPI (open square), binding of synthesized oxLig-1-liposomes in the presence of WB-CAL-1 (closed square), and binding of synthesized oxLig-1-liposomes in the presence of both β2-GPI and WB-CAL-1 (closed circle). Data are indicated as the mean ± SD of triplicate samples.
A monolayer of J774.A1 cells was incubated for 2 hours at 4° C. with Celgrosser-P medium containing [^3H]-labeled liposomes (containing a predetermined ligand, 50 nmol lipid/well). DPPS-containing liposomes (open squares), oxLig-1-containing liposomes (closed squares), oxLig-2-containing liposomes (closed circles), and 13-COOH-7KC-containing liposomes (closed triangles). Data are indicated as mean± SD of triplicate samples.
A monolayer of J774.A1 cells was incubated for 2 hours at 4° C. with Celgrosser-P medium containing [^3H]-labeled liposomes (containing a predetermined ligand (30 mmol %), 50 nmol lipid/well) and in the presence (black bars) or absence (white bars) of β2-GPI (200 μg/mL) and WB-CAL-1 ([…]).
A monolayer culture of murine macrophage-like cells (J774A.1) obtained from Riken Cell Bank (Tsukuba) was maintained in RPMI 1640 medium supplemented with 10% fetal carf serum (FCS). For binding experiments, the cells (8×10^5 cells/mL, RPMI1640) were dispensed in an amount of 1 mL/well into a 12-well culture plate (Sumitomo Bakelite Co., Ltd.) and were incubated for 24 hours at 37° C., then the culture broth was replaced with Celgrosser-P medium (Sumitomo Pharmaceutical Co.). After one hour of preincubation at 37° C., 50 μL of liposomes (50 nmol lipid/well) with or without β2-GPI (200 μg/mL) and WB-CAL-1 (100 μg/mL) were added to each culture, and the cells were incubated at 4° C. and/or 37° C. The wells were next washed with chilled PBS, and the cells were lysed by adding 1 mL of 0.1N NaOH. An aliquot was taken for determination of cellular proteins and of radioactivity associated with the cells. Protein concentration was determined in a manner as described above.

[4] = system: WB-CAL-1; experiment: ELISA on solid-phase lipid (ligand)-coated plate: WB-CAL-1 binding in presence of β2-GPI; parameters: species or system mouse; settings: absorbance at 490 nm, mean ± SD (n = 3); solid-phase ligand not methylated
Experimental: as §1, §2, §3

[5] = system: EY2C9; experiment: ELISA on solid-phase lipid (ligand)-coated plate: EY2C9 binding in presence of β2-GPI; parameters: species or system human; settings: absorbance at 490 nm, mean ± SD (n = 3); solid-phase ligand not methylated
Experimental: as §1, §2, §3

Structure (SMILES)	binding of the three antibodies (WB-CAL-1, EY2C9, mouse monoclonal anti-β2-GPI antibody) to immobilized lipid [1]	β2-GPI binding to lipid [2]	direct binding of liposomes to macrophages ([3]; J774A.1 cells, 2 hours at 4° C., 50 nmol lipid/well, without β2-GPI and antibody)	binding of liposomes to macrophages after methylation of the ligand ([3]; liposomes containing methylated ligand, with β2-GPI and WB-CAL-1, FIGS. 20C and 20D)	uptake of ligand-containing liposomes to J774A.1 cells in the presence of both β2-GPI and WB-CAL-1 ([3]; liposomes containing the ligand, compared with cholesteryl linoleate-liposomes (control), FIG. 20)	WB-CAL-1 binding, No treatment [4]	binding of the anti-β2-GPI autoantibodies (WB-CAL-1 and EY2C9) to solid-phase ligand [1]	β2-GPI binding (Cof-22 binding), No treatment [2]	EY2C9 binding, No treatment [5]
CC(C)CCC[C@@H](C)[C@H]1CC[C@H]2[C@@H]3C(=O)C=C4C[C@@H](O)CC[C@]4(C)[C@H]3CC[C@]12C [7-ketocholesterol, 5-cholesten-3β-ol-7-one, reference compound]	did not bind	did not bind							
CC(C)CCC[C@@H](C)[C@H]1CC[C@H]2[C@@H]3C(=O)C=C4C[C@@H](OC(=O)CCCCCCCCCCCC(=O)O)CC[C@]4(C)[C@H]3CC[C@]12C [13-COOH-7KC, 13-oxo-13-(7-ketocholest-5-en-3β-yloxy)tridecanoic acid]		significant bonding	relatively low or negligible small	substantially no binding	significantly enhanced	0.336 +/− 0.027	significant binding	1.303 +/− 0.049	1.062 +/− 0.040
CCCCC/C=C\C/C=C\CCCCCCCC(=O)O[C@H]1CC[C@@]2(C)C(=CC[C@H]3[C@@H]4CC[C@H]([C@H](C)CCCC(C)C)[C@@]4(C)CC[C@@H]32)C1 [Cholesteryl linoleate, reference compound]		did not bind				0.056 +/− 0.002	no such binding was observed	0.061 +/− 0.005	0.074 +/− 0.012
